Laboratory results reported in US7078499B2, “Nucleotide analogues comprising a reporter moiety and a polymerase enzyme blocking moiety” (GE Healthcare UK Limited, priority 2000, dated 2006).

Biological target: T1, leucine aminopeptidase (Sus scrofa, UniProt P15145)
T1 construct: purchased Sigma L0632
Test: Enzyme cleavage of 4′ blocking group by leucine aminopeptidase
Assay type: biochemical
Settings: 0.25 units leucine aminopeptidase, 37° C., 47 mM sodium phosphate pH 7.2, 3.3% methanol
Protocol: 1 mg of 4′-C-(N-Leucylaminomethyl)thymidine (21) is incubated at 37° C. in 47 mM sodium phosphate pH 7.2 with 3.3% methanol and 0.25 units leucine aminopeptidase (Sigma L0632), to a final volume of 200 ul.
The products resulting from a), b) or c) above are analysed by thin layer chromatography using reverse phase plates with 10% acetonitrile in water or by electrospray mass spectrometry. Successful cleavage reactions yield nucleosides running concurrently with 4′-aminomethylthymidine which is used as a standard.

T1 sequence (P15145 whole entry): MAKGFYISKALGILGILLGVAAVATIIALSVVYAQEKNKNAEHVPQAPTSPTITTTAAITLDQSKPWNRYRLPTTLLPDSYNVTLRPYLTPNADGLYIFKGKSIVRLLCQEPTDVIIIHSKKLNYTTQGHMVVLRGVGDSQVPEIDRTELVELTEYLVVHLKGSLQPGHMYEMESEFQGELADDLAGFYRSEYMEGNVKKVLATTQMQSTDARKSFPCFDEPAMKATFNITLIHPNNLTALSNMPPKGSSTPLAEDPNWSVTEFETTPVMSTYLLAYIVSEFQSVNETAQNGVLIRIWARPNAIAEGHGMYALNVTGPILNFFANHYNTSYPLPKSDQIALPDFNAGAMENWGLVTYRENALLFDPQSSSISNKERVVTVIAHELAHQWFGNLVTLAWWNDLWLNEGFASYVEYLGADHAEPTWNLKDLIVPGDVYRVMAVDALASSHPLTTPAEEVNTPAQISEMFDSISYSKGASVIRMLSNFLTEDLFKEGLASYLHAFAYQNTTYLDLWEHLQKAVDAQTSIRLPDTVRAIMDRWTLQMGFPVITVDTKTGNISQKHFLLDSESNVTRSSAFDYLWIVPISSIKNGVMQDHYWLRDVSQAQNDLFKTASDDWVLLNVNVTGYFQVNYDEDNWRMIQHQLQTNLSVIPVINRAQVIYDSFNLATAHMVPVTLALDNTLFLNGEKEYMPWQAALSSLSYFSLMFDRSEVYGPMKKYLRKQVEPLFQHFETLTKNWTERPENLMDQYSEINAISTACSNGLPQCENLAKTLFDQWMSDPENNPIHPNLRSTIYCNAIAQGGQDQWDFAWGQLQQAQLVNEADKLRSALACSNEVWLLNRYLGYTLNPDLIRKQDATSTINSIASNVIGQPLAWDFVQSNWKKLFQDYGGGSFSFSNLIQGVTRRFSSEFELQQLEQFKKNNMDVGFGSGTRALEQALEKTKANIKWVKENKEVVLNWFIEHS

Compound: Cc1cn([C@H]2C[C@H](O)[C@](CO)(CNC(=O)[C@@H](N)CC(C)C)O2)c(=O)[nH]c1=O [compound (21), 4′-C-(N-Leucylaminomethyl)thymidine]
- cleavage of 4′ blocking group (mass spectrometric detection of daughter ion mass 242): enzyme induced cleavage of the amino acid
